Assay results published in PMC2363502.
Where “and” joins values, the source holds several entries; their conditions need not be identical. Identical values can stand only once. Entries after “also recorded” stand apart in the source; their conditions may differ. Like-named read-outs stand apart in the source and are kept apart here.

Assays:
[1] = phase I safety and tolerability, 120 h continuous infusion every 4 weeks
solid tumours = assay: phase I clinical efficacy (UICC tumour response, markers, FDG-PET); type: in vivo, human
Procedure: (§1) Preclinical testing confirmed promising antiproliferative activity. […] Physical examination was performed weekly. […] N-Acetyl-SPERMINE SSAT SSAT […] Analysis was descriptive only. […] Patient characteristics are described in Table 1. […] Three patients completed the full six cycles of treatment. Of these, two received the combination 5FU/SAM486A from cycle 3 onwards. Five patients recorded a best response of stable disease. Of these, three received the combination 5FU/SAM486A from cycle 3 onwards (see below).

[2] = test system: S-adenosylmethionine decarboxylase (SAMDC); conditions: cited from earlier work
[3] = design: method as in unpublished; conditions: rat, basis of starting dose; ref unpublished; cited from earlier work
[4] = test system: xenograft or orthotopic tumour; design: method as in earlier work; conditions: 5- 25 mg kg-1 day-1 intraperitoneally, ref Regenass et al, 1994, Dorhout et al, 1995, Gutman et al, Manni et al, Delworth et al, 1997, Svensson et al, Mi et al, 1998; cited from earlier work
[5] = test system: human HCT-116 tumour cell line; design: method as in data on file; conditions: subcutaneous HCT-116 in nude mice; ref data on file; cited from earlier work
[6] = test system: polyamine pools and SAMDC activity in leukocytes; assay: polyamines and SAMDC activity in peripheral blood leukocytes; type: in vivo, human
Procedure: as §1

[7] = design: method as in data on file; conditions: rats and dogs; ref data on file; cited from earlier work
[8] = Table 4, after infusion (days 6-28), 24 mg m-2 cycle-1, 3 patients studied
[9] = Table 4, after infusion (days 6-28), 96 mg m-2 cycle-1, 3 patients studied
[10] = Table 4, after infusion (days 6-28), 400 mg m-2 cycle-1, 6 patients studied
[11] = Table 4, after infusion (days 6-28), 550 mg m-2 cycle-1, 6 patients studied
[12] = Table 4, after infusion (days 6-28), 700 mg m-2 cycle-1, 5 patients studied
[13] = Table 4, after infusion (days 6-28), all dose levels, 39 patients
[14] = Table 4, during infusion (day 1-5), 700 mg m-2 cycle-1, 5 patients studied
[15] = Table 4, during infusion (day 1-5), all dose levels, 39 patients

Q: Which “Fatigue grade 1-4, no. of patients” value ([1]; Table 4, after infusion (days 6-28), 12 mg m-2 cycle-1, 3 patients studied) does the source give for `N=C(N)c1cccc2c1CCC2=NN=C(N)N` [SAM486A] here?
A: Its value is 1 patients.

Q: And the “Fatigue grade 1-4, no. of patients” value [1, 8]?
A: The value was 1 patients.

Q: What about the “Nausea grade 1-4, no. of patients” value [1, 8] of the same molecule?
A: Its value is 1 patients.

Q: What about the “Vomiting grade 1-4, no. of patients” value [1, 8] of the same molecule?
A: Its value is 1 patients.

Q: And the “Nausea grade 1-4, no. of patients” value [1, 9]?
A: The value was 1 patients.

Q: What about the “Vomiting grade 1-4, no. of patients” value [1, 9] of the same molecule?
A: The value was 1 patients.

Q: What about the “Anorexia grade 1-4, no. of patients” value [1, 10] of the same molecule?
A: Its value is 3 patients.

Q: What about the “Fatigue grade 1-4, no. of patients” value [1, 10] of the same molecule?
A: The value was 2 patients.

Q: And the “Nausea grade 1-4, no. of patients” value [1, 10]?
A: Its value is 1 patients.

Q: What about the “Anorexia grade 1-4, no. of patients” value [1, 11] of the same molecule?
A: Its value is 1 patients.

Q: What about the “Fatigue grade 1-4, no. of patients” value [1, 11] of the same molecule?
A: The value was 2 patients.

Q: What about the “Nausea grade 1-4, no. of patients” value [1, 11] of the same molecule?
A: Its value is 3 patients.

Q: And the “Vomiting grade 1-4, no. of patients” value [1, 11]?
A: Its value is 3 patients.

Q: What about the “Fatigue grade 1-4, no. of patients” value [1, 12] of the same molecule?
A: The value was 2 patients.

Q: What about the “Nausea grade 1-4, no. of patients” value [1, 12] of the same molecule?
A: Its value is 2 patients.

Q: And the “Vomiting grade 1-4, no. of patients” value [1, 12]?
A: The value was 3 patients.

Q: And the “Anorexia grade 1-4, Total (%)” value [1, 13]?
A: The value was 5 (13) patients (%).

Q: And the “Fatigue grade 1-4, Total (%)” value [1, 13]?
A: The value was 10 (26) patients (%).

Q: And the “Vomiting grade 1-4, Total (%)” value [1, 13]?
A: Its value is 8 (21) patients (%).

Q: What about the “Nausea grade 1-4, Total (%)” value ([1]; Table 4, after infusion (days 6-28), all dose levels, 39 patients, incl. combination) of the same molecule?
A: Its value is 10 (26) patients (%).

Q: What about the “Asthenia grade 3-4, no. of patients” value ([1]; Table 4, during infusion (day 1-5), 550 mg m-2 cycle-1, 6 patients studied) of the same molecule?
A: The value was 1 patients.

Q: And the “Condition aggravated grade 3-4, no. of patients” value [1, 14]?
A: Its value is 1 patients.

Q: And the “Vesicular rash grade 3-4, no. of patients” value [1, 14]?
A: The value was 1 patients.

Q: What about the “Vomiting grade 3-4, no. of patients” value [1, 14] of the same molecule?
A: Its value is 1 patients.

Q: What about the “Asthenia grade 3-4, Total (%)” value [1, 15] of the same molecule?
A: The value was 1 (3) patients (%).

Q: And the “Condition aggravated grade 3-4, Total (%)” value [1, 15]?
A: Its value is 1 (3) patients (%).

Q: And the “Vesicular rash grade 3-4, Total (%)” value [1, 15]?
A: Its value is 1 (3) patients (%).

Q: What about the “Vomiting grade 3-4, Total (%)” value [1, 15] of the same molecule?
A: Its value is 1 (3) patients (%).

Q: What about the “Nausea grade 1-4, no. of patients” value ([1]; Table 4, during infusion (days 1-5), 400 mg m-2 cycle-1, 6 patients studied) of the same molecule?
A: Its value is 1 patients.

Q: And the “Nausea grade 1-4, no. of patients” value ([1]; Table 4, during infusion (days 1-5), 550 mg m-2 cycle-1, 6 patients studied)?
A: Its value is 2 patients.

Q: And the “Nausea grade 1-4, no. of patients” value ([1]; Table 4, during infusion (days 1-5), 700 mg m-2 cycle-1, 5 patients studied)?
A: Its value is 2 patients.

Q: And the “Nausea grade 1-4, Total (%)” value ([1]; Table 4, during infusion (days 1-5), all dose levels, 39 patients)?
A: The value was 5 (13) patients (%).

Q: And the “mild to moderate nausea and vomiting, incidence” value ([1]; after infusion, any causality)?
A: The value was 31%.

Q: What about the “fatigue, incidence in all patients” value ([1]; after the infusion, any causality) of the same molecule?
A: The value was 51%.

Q: What about the “anorexia considered related to SAM486A, incidence” value ([1]; all patients) of the same molecule?
A: The value was 13%.

Q: What about the “fatigue considered related to SAM486A, incidence” value ([1]; all patients) of the same molecule?
A: Its value is 26%.

Q: And the “nausea considered related to SAM486A, incidence” value ([1]; all patients)?
A: The value was 26%.

Q: What about the “vomiting considered related to SAM486A, incidence” value ([1]; all patients) of the same molecule?
A: Its value is 21%.

Q: And the “mild to moderate nausea and vomiting, incidence” value ([1]; during infusion, any causality)?
A: Its value is 15%.

Q: And the “changes in electrolytes, renal function, LVEF” value ([1]; in vivo)?
A: The value was “no significant drug-related changes”.

Q: What about the “correlation coefficient Cmax vs granulocytopenia” value ([1]; in vivo) of the same molecule?
A: The value was 0.6794.

Q: What about the “dose with reversible dose-limiting neutropenia” value ([1]; in vivo) of the same molecule?
A: Its value is 550 mg m^–2cycle^–1 and 700 mg m^–2cycle^–1.

Q: What about the “fever associated with granulocytopenia” value ([1]; in vivo) of the same molecule?
A: The value was “three”.

Q: And the “median day of granulocyte nadir” value ([1]; in vivo)?
A: The value was 21 day of the cycle.

Q: What about the “patients with grade 4 granulocytopenia” value ([1]; in vivo) of the same molecule?
A: The value was “three out of five”.

Q: What about the “patients with some worsening in performance status” value ([1]; in vivo) of the same molecule?
A: Its value is “eight of the 11”.

Q: What about the “recommended dose for phase II studies” value ([1]; in vivo) of the same molecule?
A: Its value is 400 and 400 mg m-2 cycle-1.

Q: What about the “time to spontaneous recovery from granulocyte nadir” value ([1]; without growth factors) of the same molecule?
A: The value was ≤ 1 week.

Q: And the objective tumour response (solid tumours; 39 patients)?
A: Its objective tumour response is “No objective remission; also recorded: No complete or partial responses”.

Q: And the “patients with stable disease as best response” value (solid tumours; 39 patients)?
A: The value was “five”.

Q: What about the “tumour markers (CEA, CA 15.3) post-baseline” value (solid tumours; six evaluable patients) of the same molecule?
A: The value was “No trends towards decreases”.

Q: What about the “FDG-PET result after first 5-day infusion” value (solid tumours; two patients, 400 mg m-2 cycle-1) of the same molecule?
A: Its value is “stable disease at best”.

Q: What about the “fold more active than MGBG” value ([2]; SAMDC inhibition in vitro, ref Regenass et al, 1994) of the same molecule?
A: Its value is “approximately 200 fold”.

Q: And the IC50 ([2]; as quoted in results and discussion, read-out: IC50 required in in vitro experiments for inhibition of SAMDC)?
A: Its IC50 is 4.7 nM.

Q: And the “IC50 for inhibition of SAMDC as plasma concentration” value ([2]; as quoted in results)?
A: The value was 1.1 ng/mL.

Q: What about the IC50 ([2]; in vitro, ref Regenass et al, 1994, read-out: IC50 for SAMDC) of the same molecule?
A: Its IC50 is 4.7 nM.

Q: And the no-adverse-effect level [3]?
A: The no-adverse-effect level was 0.06 mg/kg/day.

Q: And the “effect on tumour growth” value [4]?
A: The value was “inhibited tumour growth”.

Q: And the “drug level in tumours compared to plasma elimination profile” value [5]?
A: Its value is “marked accumulation of the drug was seen in tumours”.

Q: And the “evaluable patients with marginal trend to increased SAMDC activity” value ([6]; 400 mg m-2 cycle-1 and above)?
A: The value was “eight of 13”.

Q: What about the “evaluable patients with trend to increased putrescine” value ([6]; 400 mg m-2 cycle-1 and above) of the same molecule?
A: The value was 10 of the 11.

Q: What about the “evaluable patients with trend to increased putrescine” value ([6]; 3-200 mg m-2 cycle-1) of the same molecule?
A: Its value is “six of the 12”.

Q: What about the “evaluable patients with marginal trend to increased SAMDC activity” value ([6]; doses up to 200 mg m-2 cycle-1) of the same molecule?
A: Its value is “nine of 18”.

Q: What about the “expected concomitant decrease in spermidine and spermine” value ([6]; peripheral blood leukocytes) of the same molecule?
A: The value was “could not be detected”.

Q: And the metabolism and excretion [7]?
A: The metabolism and excretion was “hardly metabolized and predominantly renally excreted”.

Q: And the “plasma clearance and distribution” value [7]?
A: Its value is “multi-exponential with extensive distribution outside the plasma compartment”.
